Reference: patent publication US20130315920A1, “Cross Protective Epitopes of Aspergillus Fumigatus and Candida Albicans” (Cell Medica Limited, priority 2010, published 2013)

How the values were obtained:
[1] = test system: DC transfected with Crf1 mRNA; experiment: Peptide-specific T-cell clones stimulated with Crf1 mRNA-transfected DC (IFN-γ); assay type: cell-based, human
Method: (§1) T-cell cloning was performed as described in below. T-cell clones were stimulated either with mature peptide-pulsed (2.5 μg/ml) or Crf1 mRNA-transfected DC, immature DC incubated for 24 h with A. fumigatus cell extract (20 μg/ml) in the presence of cytokine maturation cocktail or immature DC incubated for 24 h with inactivated A. fumigatus or C. albicans fungus (multiplicity of infection 3) in a R:S ratio of 5:1.
For T-cell cloning 6×10^7 PBMC were stimulated overnight with 5 μg/ml peptide and 1 μg/ml CD40 antibody (HB14, Miltenyi Biotec). Cells were labelled with anti-CD154^+ microbeads and isolated by magnetic cell separation according to the manufacturers' instructions (Miltenyi Biotec). Selected cells were cultured with γ-irradiated autologous PBMC (ratio 1:50) and cytokines were supplemented as described above. On d14, T-cell clones were generated by limiting dilution in 96-well plates and expanded using the rapid expansion protocol previously described^50.
A. fumigatus Crf1 cDNA was cloned into the pGEM4Z vector (provided by Kris Thielemans) and in vitro transcribed using mMESSAGE mMACHINE T Ultra Kit (Ambion) according to the manufacturers' instructions. Crf1 was fused to the N-terminal domain of the invariant chain to enhance antigen presentation by MHC class II^51,52. Maturated DC were electroporated with 15 μg mRNA at 300V and 150 μF using the EQUIBIO EasyjecT Plus® apparatus (EQUIBIO) in serum-free medium (OptiMEM, Gibco)^41.

[2] = test system: A. fumigatus cell extract; experiment: Peptide-specific T-cell clones stimulated with DC incubated with A. fumigatus cell extract (IFN-γ); assay type: cell-based, Aspergillus fumigatus; conditions: extract 20 μg/ml, DC incubated 24 h
Method: as §1
Fungal extracts were generated as described^48 and protein content was measured by Bradford protein assay (Perbio Science) according to the manufacturers' instructions. For inactivated fungus Aspergillus conidia were inoculated in growth medium^49 and cultured for 0, 4, 8 or 12 h. Candida species were cultured for 24 h. Fungi were inactivated with 70% ethanol. Ethanol-inactivated fungi and extracts were validated for sterility by subculturing on Sabouraud dextrose agar.

[3] = test system: inactivated A. fumigatus; experiment: Peptide-specific T-cell clones stimulated with DC incubated with inactivated A. fumigatus (resting conidia, germinating conidia, hyphae); assay type: cell-based, Aspergillus fumigatus
Source text: Response of Crf1 peptide-specific T-cell clones to stimulation with native A. fumigatus antigen. (a) T-cell clones from different donors specific for p1, p22, p27, p41 and p59 that responded to stimulation with Crf1 mRNA-transfected DC were stimulated with A. fumigatus cell extract or (b) inactivated germinating A. fumigatus conidia. IFN-γ values are given after subtraction of the negative control. Shown is 1 clone per antigen and donor (representative experiments, n≧3). (c) Crf1 p41-specific T-cell clones respond to stimulation with DC incubated overnight with germinating A. fumigatus conidia or hyphae but not to resting conidia. T cell clones were stimulated with A. fumigatus inactivated 0 h (resting conidia), 6 h (germinating conidia) or 12 h (hyphae) after incubation in growth medium.
as §1
Fungal extracts were generated as described^48 and protein content was measured by Bradford protein assay (Perbio Science) according to the manufacturers' instructions. […]

[4] = test system: A. flavus, A. nidulans, A. niger, A. terreus, C. glabrata and C. krusei; experiment: Cross-reactivity of T-cell clones to other Aspergillus and Candida species; assay type: cell-based; conditions: data not shown
Source text: We then analyzed if our T-cell clones might cross-react to other clinically relevant Aspergillus and Candida species such as A. flavus, A. nidulans, A. niger, A. terreus, C. glabrata and C. krusei because they also express proteins with some sequence similarity to A. fumigatus Crf1. […] Thus, p41-specific TH1 cells represent a core repertoire in antifungal immune responses being reactive to A. fumigatus but also to C. albicans, the second most important pathogenic fungus in HSCT patients.
Fungal strains A. fumigatus D141, A. nidulans FGSCA4, C. albicans SC5314 and clinical isolates A. fumigatus, A. terreus, A. flavus, A. niger, C. albicans, C. glabrata and C. krusei were provided by Sven Krappmann, Joachim Morschhäuser and Reno Frei.

[5] = test system: HLA-DRB1*04; experiment: HLA restriction with peptide-pulsed partially matched LCL (IFN-γ ELISA); assay type: cell-based, human; conditions: 10^−3 to 1 ug/ml peptide
Method: (§2) To evaluate the utility of the Crf1 p41 epitope for potential clinical application, we defined the HLA restriction of Crf1 p41-specific CD4^+ T clones from different donors by stimulation with peptide-pulsed partially matched LCLs. […] As presentation of the Crf1 p41 peptide could also be mediated by other MHC class II alleles, we verified the HLA restriction by stimulation of PBMC from additional donors.
(§3) HLA restriction was analyzed with partially matched allogeneic EBV-lymphoblastoid cell lines (LCL) (provided by Patricia Comoli and Inge Jedema) pulsed with 10^−3 to 1 ug/ml peptide using IFN-γ ELISA.

[6] = test system: HLA-DRB1*13; experiment: as above; assay type: cell-based, human; conditions: for Presentation / binding by HLA-DRB1*13: 10^−3 to 1 ug/ml peptide
Method: as §2, §3

[7] = test system: CD4^+ spleen cells; experiment: Proliferation assay of purified CD4+ spleen cells ([3H]thymidine); assay type: cell-based; conditions: mice untreated or vaccinated with A. fumigatus or C. albicans; 5 μg/mL peptide, 3 days
Method: A. fumigatus Crf1 protein mediates cross-protection to C. albicans. Mice were injected intranasally with resting A. fumigatus conidia 14 days before infection, or with purified Crf1 protein and murine CpG oligodeoxynucleotide 1862 14, 7 and 3 days before intragastric infection with C. albicans. Note (a) the reduced inflammatory cell recruitment and acanthosis in mice vaccinated with A. fumigatus conidia or Crf1 protein as opposed to control mice shown in FIG. 5a and c and (b) the increase in protective TH1 and regulatory T-cell transcription factors and cytokine levels. […] The results are expressed as mean cpm±SEM of triplicate cultures. […]
DC (1×10^5) and CD4^+ T-cells (5×10^5) were purified from spleens of mice untreated or vaccinated with A. fumigatus or C. albicans, by magnetic separation of MicroBeads (Miltenyi Biotec) and cocultured in round-bottom, 96-well plates in 200 μl complete medium, with and without anti-CD3ε antibody (clone 145-2C11; BD PharMingen), heat-inactivated Aspergillus or Candida (at a cell:fungi ratio of 2:1), 5 μg/mL of Crf1 p41 peptide. […] Incorporation into cellular DNA was measured by liquid scintillation counting. The results are expressed as mean cpm±SEM of triplicate cultures.

HTYTIDWTKDAVTWS (Peptide found in the Crf1 protein of Aspergillus fumigatus) [p41, Crf1 aa 161-175]
Response of peptide-specific CD4+ T-cell clones to endogenously processed antigen ([1]; all donors): All generated p41-specific CD4^+ T-cell clones were activated readily
Number of T-cell clones reacting to Crf1 mRNA-transfected DC/number of peptide-specific T-cell clones ([1]; donor 1): 11/11
Number of T-cell clones reacting to Crf1 mRNA-transfected DC/number of peptide-specific T-cell clones ([1]; donor 2): 16/16
Number of T-cell clones reacting to Crf1 mRNA-transfected DC/number of peptide-specific T-cell clones ([1]; donor 4): 2/2
Number of T-cell clones reacting to Crf1 mRNA-transfected DC/number of peptide-specific T-cell clones ([1]; donor 7): 4/4
Number of T-cell clones reacting to Crf1 mRNA-transfected DC/number of peptide-specific T-cell clones ([1]; donor 10): 3/3
Response of peptide-specific T-cell clones to A. fumigatus extract [2]: All Crf1 p41-specific T-cell clones of all 5 donors
Activation of peptide-specific T-cell clones by resting conidia ([3]; A. fumigatus inactivated 0 h (resting conidia)): resting conidia were not able to activate peptide-specific T-cell clones
Activation of peptide-specific T-cell clones by germinating conidia and hyphae ([3]; A. fumigatus inactivated 6 h (germinating conidia) or 12 h (hyphae)): germinating conidia induced similar T-cell responses as outgrown hyphae
Cross-reactivity to other Aspergillus and Candida species [4]: none of the Crf1 p27-, p41- and p59-specific T-cell clones showed any cross-reactivity to these fungi
Presentation / binding by HLA-DRB1*04 [5]: presentation of the Crf1 p41 is mediated by HLA-DRB1*03, 04 and 13
Presentation / binding by HLA-DRB1*04 ([5]; listed as HTYTIDWTKDAVTWS): has been shown to bind to HLA-DRB1*03, HLA-DRB1*13 and HLA-DRB1*04
Cross-recognition between HLA-DRB1*03 and 13 [6]: in some instances DRB1*03-restricted TCRs might be able to recognize p41 peptide presented by DRB1*13 and vice versa
Presentation / binding by HLA-DRB1*13 [6]: presentation of the Crf1 p41 is mediated by HLA-DRB1*03, 04 and 13
Presentation / binding by HLA-DRB1*13 ([6]; listed as HTYTIDWTKDAVTWS): has been shown to bind to HLA-DRB1*03, HLA-DRB1*13 and HLA-DRB1*04
Antigen-specific proliferation of CD4+ spleen cells [7]: cross-protection could be mediated by T-cells recognizing the same epitope p41
